Test results reported in ChEMBL document CHEMBL5120794, “Development of 5-hydroxyl-1-azabenzanthrone derivatives as dual binding site and selective acetylcholinesterase inhibitors” (Eur J Med Chem, 2022).
The source made the active and inactive calls. The calls are words filed in the database; no cut-off is given here.

What was measured:
[1] = system: PC-12; assay: Cytoprotective activity against H2O2-induced oxidative damage in rat PC-12 cells assessed as cell viability at 1 uM preincubated for 4 hrs followed by H2O2 treatment for another 24 hrs by MTT assay; assay type: functional, cell-based; settings: time 28.0 hrs
[2] = molecular target: Acetylcholinesterase (Electrophorus electricus, UniProt O42275); assay: Inhibition of Electrophorus electricus AchE using […] as substrate incubated for 10 mins followed by substrate addition measured at 0 to 180 secs by Ellman's method
Chain of Acetylcholinesterase (O42275 whole entry): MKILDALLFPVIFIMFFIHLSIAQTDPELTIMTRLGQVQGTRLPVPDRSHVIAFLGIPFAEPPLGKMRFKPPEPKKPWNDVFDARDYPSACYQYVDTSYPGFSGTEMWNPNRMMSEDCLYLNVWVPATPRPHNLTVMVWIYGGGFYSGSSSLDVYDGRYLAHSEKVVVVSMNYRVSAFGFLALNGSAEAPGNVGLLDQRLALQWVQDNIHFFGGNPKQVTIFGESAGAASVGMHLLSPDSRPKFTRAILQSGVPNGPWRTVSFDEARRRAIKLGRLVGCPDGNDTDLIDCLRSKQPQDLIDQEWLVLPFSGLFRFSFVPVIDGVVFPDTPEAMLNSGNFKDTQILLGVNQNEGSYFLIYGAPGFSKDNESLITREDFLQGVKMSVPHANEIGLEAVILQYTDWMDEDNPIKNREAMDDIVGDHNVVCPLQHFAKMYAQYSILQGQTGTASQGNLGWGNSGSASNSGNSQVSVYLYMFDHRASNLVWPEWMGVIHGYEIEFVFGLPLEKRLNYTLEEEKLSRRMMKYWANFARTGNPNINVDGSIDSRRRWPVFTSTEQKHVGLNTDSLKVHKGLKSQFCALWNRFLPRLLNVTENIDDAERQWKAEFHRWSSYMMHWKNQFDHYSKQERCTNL

[3] = molecular target: Cholinesterase (Equus caballus, UniProt P81908)
Chain of Cholinesterase (P81908 whole entry): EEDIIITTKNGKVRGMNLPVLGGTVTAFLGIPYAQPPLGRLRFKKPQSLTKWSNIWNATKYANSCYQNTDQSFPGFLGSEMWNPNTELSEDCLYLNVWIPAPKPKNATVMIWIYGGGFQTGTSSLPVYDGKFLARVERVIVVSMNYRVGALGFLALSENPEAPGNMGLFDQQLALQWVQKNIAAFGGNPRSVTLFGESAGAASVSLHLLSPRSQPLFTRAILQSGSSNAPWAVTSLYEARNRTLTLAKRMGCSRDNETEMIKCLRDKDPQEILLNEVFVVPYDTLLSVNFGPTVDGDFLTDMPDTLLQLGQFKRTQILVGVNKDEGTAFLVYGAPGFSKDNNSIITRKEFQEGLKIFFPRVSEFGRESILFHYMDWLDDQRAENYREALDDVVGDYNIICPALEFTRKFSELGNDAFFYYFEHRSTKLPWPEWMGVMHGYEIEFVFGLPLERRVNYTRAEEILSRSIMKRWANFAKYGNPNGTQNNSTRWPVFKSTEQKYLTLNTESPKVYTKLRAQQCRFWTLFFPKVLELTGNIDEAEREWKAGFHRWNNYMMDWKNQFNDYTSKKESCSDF
Description: Inhibition of equine serum BchE using S-butyryl thiocholine iodide as substrate incubated for 10 mins followed by substrate addition measured at 0 to 180 secs by Ellman's method

[4] = molecular target: Amyloid-beta precursor protein (Homo sapiens) (UniProt P05067); assay: Inhibition of amyloid beta (1 to 42) (unknown origin) self-induced aggregation at 25 uM measured after 46 to 48 hrs by Thioflavin binding assay relative to control; settings: time 46-48 hrs
Chain of Amyloid-beta precursor protein (Homo sapiens) (P05067 whole entry): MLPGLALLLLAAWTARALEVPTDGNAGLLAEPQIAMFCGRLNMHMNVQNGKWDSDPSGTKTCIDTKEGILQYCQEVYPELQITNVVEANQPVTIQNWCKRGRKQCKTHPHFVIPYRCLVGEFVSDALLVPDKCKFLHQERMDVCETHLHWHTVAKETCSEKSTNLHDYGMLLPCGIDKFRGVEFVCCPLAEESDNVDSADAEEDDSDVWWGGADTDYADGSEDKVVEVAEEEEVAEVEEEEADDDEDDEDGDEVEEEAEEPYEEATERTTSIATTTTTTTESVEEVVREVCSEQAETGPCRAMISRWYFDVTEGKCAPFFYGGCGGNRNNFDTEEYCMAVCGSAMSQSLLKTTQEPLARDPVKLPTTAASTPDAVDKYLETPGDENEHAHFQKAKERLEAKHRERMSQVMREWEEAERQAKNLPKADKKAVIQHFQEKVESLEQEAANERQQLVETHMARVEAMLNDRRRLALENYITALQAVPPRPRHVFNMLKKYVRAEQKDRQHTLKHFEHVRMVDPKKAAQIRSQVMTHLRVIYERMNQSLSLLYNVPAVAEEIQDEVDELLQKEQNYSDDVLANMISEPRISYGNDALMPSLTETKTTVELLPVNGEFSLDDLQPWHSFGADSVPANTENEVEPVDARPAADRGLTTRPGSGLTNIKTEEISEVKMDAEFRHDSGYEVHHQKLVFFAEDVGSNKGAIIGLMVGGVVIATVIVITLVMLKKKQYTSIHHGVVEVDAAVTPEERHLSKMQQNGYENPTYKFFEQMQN

[5] = in vitro; settings: PAMPA

Papp [5] | SMILES | Activity [1] | IC50 [2] | IC50 [3] | inhibition [4]
– | O=C1c2ccccc2-c2nccc3cc(OCCN4CCOCC4)cc1c23 | Active | 19.7 µM | > 100 µM | 24.4%
– | O=C1c2ccccc2-c2nccc3cc(OCCN4CCCCC4)cc1c23 | Active | 3.69 µM | 6.71 µM | 27.5%
0.9 ×10⁻⁶ cm/s | CCn1cc(C(=O)O)c(=O)c2cc(F)c(N3CCNC(C)C3)c(F)c21 (configuration not stated) [LOMEFLOXACIN] | – | – | – | –
– | O=C1c2ccccc2-c2nccc3cc(OCCCCN4CCOCC4)cc1c23 | Active | 7.3 µM | > 100 µM | 13.1%
– | CN1CCN(CCCCOc2cc3c4c(nccc4c2)-c2ccccc2C3=O)CC1 | Active | 1.41 µM | > 100 µM | 25.4%
– | CC1CCCCN1CCCCOc1cc2c3c(nccc3c1)-c1ccccc1C2=O (configuration not stated) | Active | 0.25 µM | 4.15 µM | 34.8%
– | O=C1c2ccccc2-c2nccc3cc(OCCCCN4CCCCC4)cc1c23 | Active | 0.15 µM | 15.4 µM | 32.1%
– | CN1CCN(CCCOc2cc3c4c(nccc4c2)-c2ccccc2C3=O)CC1 | – | 0.82 µM | > 100 µM | 29.1%
– | O=C1c2ccccc2-c2nccc3cc(OCCCN4CCOCC4)cc1c23 | Active | 10.2 µM | > 100 µM | 23.5%
